The source of these data is article PMC7827406, “Structure–Activity Relationship (SAR) Study of Spautin-1 to Entail the Discovery of Novel NEK4 Inhibitors” (International Journal of Molecular Sciences, 2021).

What all share (assay): biochemical
Holding throughout (set-up): Eurofins KinaseProfiler full panel at Km ATP, residual kinase activity (%) relative to DMSO

For one assay, the target named is T1, CDK5/p35(h) (Homo sapiens, UniProt Q00535).
T1 construct: p35
An outline of the steps:
(§1)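 Compounds screened at 10 µM in radiometric kinase activity assays at Km ATP, reported as remaining kinase activity (%). A KINOMEscan competition-binding screen at 10 µM measured DNA-tagged kinase retained on immobilized active-site ligand by qPCR.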

The target of another assay is ErbB2(h) (Homo sapiens, UniProt P04626). An outline of the steps: as §1
Chain of ErbB2(h) (P04626 whole entry): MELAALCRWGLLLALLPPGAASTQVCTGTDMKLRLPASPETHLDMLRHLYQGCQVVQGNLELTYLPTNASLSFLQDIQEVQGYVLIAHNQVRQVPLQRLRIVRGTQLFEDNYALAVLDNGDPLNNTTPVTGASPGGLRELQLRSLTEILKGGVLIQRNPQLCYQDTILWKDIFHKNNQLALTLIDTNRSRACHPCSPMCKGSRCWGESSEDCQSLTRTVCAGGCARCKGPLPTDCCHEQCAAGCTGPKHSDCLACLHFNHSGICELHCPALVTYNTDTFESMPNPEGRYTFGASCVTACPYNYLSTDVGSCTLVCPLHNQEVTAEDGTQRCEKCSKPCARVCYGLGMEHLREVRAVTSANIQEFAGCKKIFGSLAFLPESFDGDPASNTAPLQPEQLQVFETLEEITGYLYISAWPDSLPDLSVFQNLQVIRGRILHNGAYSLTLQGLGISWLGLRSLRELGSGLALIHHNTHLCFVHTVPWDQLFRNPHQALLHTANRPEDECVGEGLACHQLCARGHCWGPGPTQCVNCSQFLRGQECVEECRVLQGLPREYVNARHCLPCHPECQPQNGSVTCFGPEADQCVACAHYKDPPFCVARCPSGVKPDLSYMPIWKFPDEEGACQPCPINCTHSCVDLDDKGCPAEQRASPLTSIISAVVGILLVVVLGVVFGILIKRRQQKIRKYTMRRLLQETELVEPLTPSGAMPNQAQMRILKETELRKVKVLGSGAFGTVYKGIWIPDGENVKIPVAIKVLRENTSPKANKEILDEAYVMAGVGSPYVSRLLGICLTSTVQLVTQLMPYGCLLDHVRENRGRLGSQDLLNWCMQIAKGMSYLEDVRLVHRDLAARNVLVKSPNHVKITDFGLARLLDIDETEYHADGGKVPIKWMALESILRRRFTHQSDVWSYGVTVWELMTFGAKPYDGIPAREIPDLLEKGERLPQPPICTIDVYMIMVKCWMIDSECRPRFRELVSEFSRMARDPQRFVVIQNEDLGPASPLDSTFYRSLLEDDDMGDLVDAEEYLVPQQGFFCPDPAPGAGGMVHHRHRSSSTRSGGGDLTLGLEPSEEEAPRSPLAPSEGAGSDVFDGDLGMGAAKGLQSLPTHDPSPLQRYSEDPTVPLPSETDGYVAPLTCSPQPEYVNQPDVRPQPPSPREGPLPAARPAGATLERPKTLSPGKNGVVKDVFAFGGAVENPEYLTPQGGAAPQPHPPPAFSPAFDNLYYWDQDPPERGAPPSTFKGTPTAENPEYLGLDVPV
Another assay has as its target FGFR1(V561M)(h) (Homo sapiens, UniProt P11362, V561M). An outline of the steps:
as §1

The target in a further assay is HIPK2(h) (Homo sapiens, UniProt Q9H2X6). The procedure, abridged:
as §1

For the next assay, the target named is T2, Haspin(h) (Homo sapiens, UniProt Q8TF76).
T2 sequence (Q8TF76 1-798): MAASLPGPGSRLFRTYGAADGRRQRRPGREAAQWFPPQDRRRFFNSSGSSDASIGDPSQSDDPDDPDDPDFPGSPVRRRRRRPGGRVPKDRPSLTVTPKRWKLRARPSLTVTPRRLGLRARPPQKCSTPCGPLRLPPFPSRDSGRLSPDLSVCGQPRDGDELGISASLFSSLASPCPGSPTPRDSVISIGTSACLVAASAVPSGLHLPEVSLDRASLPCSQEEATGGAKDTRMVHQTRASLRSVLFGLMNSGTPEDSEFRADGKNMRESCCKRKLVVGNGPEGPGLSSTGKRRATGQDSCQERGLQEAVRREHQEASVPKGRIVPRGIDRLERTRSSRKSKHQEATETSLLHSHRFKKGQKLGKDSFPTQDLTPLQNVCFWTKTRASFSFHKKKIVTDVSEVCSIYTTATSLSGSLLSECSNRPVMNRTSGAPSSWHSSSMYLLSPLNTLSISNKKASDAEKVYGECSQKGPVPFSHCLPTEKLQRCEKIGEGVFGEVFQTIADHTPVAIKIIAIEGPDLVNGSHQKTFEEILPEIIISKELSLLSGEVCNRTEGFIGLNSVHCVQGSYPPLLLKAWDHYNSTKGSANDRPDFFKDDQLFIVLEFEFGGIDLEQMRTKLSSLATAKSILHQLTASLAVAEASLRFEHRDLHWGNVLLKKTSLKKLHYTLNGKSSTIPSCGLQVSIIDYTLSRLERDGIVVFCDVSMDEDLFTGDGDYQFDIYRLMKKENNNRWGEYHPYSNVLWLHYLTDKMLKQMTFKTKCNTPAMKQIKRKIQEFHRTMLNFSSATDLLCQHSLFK
An outline of the steps: as §1

For another assay, the target named is IRAK1(h) (Homo sapiens, UniProt P51617). The procedure, abridged: as §1
Chain of IRAK1(h) (P51617 whole entry): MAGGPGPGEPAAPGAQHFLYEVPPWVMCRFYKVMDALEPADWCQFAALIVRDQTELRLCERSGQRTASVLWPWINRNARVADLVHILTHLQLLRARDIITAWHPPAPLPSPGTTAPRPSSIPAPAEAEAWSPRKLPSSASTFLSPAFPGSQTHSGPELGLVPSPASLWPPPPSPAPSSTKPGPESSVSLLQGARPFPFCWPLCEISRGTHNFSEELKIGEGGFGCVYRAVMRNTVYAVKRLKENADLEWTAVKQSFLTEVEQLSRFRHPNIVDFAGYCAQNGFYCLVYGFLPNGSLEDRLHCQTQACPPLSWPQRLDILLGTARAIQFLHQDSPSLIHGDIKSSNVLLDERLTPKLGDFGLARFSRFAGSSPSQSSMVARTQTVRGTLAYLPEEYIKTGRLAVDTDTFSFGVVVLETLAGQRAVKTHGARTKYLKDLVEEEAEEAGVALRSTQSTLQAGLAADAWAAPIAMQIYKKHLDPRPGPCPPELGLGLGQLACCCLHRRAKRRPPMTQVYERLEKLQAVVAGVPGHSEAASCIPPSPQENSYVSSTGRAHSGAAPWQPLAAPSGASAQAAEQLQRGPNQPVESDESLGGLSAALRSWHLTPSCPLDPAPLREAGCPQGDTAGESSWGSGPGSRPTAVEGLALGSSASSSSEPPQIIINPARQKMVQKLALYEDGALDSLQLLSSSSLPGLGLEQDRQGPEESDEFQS
For a further assay, the target named is PAK6(h) (Homo sapiens, UniProt Q9NQU5). The procedure, abridged:
as §1

The target in assay [1] is T3, PI3 Kinase (p110b/p85a)(m) (Mus musculus, UniProt Q8BTI9).
T3 construct: gene Pik3cb
The procedure, abridged:
as §1

The target in a further assay is T4, PKA(h) (Homo sapiens, UniProt P17612).
T4 construct: gene PRKACA
The procedure, abridged:
as §1

A further assay deals with T5, PKCβII(h) (Homo sapiens, UniProt P05771).
T5 construct: gene PRKCB; isoform beta II
T5 sequence (P05771 whole entry, canonical isoform): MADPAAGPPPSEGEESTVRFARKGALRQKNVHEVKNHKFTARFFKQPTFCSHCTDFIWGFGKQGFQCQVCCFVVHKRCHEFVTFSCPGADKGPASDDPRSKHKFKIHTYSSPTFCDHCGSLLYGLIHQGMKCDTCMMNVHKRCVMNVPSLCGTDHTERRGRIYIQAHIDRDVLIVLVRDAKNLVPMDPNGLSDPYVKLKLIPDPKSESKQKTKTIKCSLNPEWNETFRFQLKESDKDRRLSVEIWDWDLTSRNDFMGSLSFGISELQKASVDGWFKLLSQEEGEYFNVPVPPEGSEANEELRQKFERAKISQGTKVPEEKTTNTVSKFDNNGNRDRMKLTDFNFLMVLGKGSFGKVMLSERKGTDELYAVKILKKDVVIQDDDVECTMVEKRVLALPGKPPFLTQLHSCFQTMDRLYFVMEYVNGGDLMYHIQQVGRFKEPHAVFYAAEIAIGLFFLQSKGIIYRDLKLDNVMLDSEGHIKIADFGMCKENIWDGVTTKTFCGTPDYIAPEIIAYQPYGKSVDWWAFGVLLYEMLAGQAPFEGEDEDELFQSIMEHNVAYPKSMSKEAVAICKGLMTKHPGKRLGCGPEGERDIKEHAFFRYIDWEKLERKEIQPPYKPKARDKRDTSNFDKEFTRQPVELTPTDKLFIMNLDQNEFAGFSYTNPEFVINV
The procedure, abridged:
as §1

For a further assay, the target named is STK32B(h) (Homo sapiens, UniProt Q9NY57). An outline of the steps:
as §1

Another assay deals with T6, Tie2(R849W)(h) (Homo sapiens, UniProt Q02763, R849W).
T6 construct: gene TEK
An outline of the steps: as §1

Setting [2] is: read-out: Residual activity (%) 5at.
Where [3] appears, read: read-out: Residual activity (%) 5ay.
[4] abbreviates: read-out: Residual activity (%) 5as.
[5] abbreviates: read-out: Residual activity (%) Spautin-1 5aa.

Like-named read-outs stand apart in the source and are kept apart here.

Chain of STK32B(h) (Q9NY57 whole entry): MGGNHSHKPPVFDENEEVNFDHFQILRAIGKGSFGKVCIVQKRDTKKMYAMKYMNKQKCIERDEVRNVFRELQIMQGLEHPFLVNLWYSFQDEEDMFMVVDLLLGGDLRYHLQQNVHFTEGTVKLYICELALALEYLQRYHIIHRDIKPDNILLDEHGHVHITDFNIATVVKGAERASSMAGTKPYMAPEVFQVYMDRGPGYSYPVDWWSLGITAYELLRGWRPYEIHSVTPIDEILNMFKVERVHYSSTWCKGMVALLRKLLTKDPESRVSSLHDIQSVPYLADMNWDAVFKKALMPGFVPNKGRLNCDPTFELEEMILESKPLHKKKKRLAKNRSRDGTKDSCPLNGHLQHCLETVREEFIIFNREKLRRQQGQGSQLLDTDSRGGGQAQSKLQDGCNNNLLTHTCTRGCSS
Chain of FGFR1(V561M)(h) (P11362 whole entry V561M): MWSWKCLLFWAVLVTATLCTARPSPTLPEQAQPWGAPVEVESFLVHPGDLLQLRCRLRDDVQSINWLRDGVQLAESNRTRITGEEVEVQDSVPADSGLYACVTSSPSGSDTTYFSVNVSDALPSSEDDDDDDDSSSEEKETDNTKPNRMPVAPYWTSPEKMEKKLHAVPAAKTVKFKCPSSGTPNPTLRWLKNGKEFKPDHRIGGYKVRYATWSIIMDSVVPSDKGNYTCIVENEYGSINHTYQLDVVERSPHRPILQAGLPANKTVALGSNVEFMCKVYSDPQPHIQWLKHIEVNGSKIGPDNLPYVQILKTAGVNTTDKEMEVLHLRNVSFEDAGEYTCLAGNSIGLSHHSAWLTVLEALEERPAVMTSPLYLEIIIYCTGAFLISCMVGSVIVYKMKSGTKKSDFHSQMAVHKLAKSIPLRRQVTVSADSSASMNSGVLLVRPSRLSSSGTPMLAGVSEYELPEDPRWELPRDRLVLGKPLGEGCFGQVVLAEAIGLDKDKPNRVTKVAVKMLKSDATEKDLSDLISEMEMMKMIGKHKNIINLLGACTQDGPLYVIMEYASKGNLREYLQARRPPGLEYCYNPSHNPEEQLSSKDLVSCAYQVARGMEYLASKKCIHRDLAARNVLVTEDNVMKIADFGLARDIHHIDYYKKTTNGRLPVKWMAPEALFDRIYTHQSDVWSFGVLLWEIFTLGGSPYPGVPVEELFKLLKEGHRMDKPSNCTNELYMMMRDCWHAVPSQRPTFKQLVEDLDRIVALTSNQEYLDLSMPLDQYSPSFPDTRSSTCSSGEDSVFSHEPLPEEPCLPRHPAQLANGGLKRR
Chain of PAK6(h) (Q9NQU5 whole entry): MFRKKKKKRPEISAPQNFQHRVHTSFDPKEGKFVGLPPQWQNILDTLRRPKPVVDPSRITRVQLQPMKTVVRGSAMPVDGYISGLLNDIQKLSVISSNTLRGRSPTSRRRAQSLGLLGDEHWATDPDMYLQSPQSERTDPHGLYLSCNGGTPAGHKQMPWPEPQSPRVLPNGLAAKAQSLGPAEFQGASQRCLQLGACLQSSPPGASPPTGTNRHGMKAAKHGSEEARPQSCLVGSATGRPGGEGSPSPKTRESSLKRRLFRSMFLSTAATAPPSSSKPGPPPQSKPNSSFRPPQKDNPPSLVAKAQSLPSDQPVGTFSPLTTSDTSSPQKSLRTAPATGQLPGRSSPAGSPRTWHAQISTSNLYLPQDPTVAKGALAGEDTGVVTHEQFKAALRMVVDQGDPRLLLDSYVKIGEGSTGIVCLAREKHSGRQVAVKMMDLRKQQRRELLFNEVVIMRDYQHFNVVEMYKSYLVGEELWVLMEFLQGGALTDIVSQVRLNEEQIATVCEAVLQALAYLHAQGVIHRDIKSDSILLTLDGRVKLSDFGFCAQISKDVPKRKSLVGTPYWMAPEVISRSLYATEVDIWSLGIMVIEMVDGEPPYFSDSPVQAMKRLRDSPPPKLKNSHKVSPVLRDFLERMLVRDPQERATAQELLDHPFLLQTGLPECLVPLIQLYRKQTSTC

As to `Fc1ccc2ncnc(NCCc3ccc(Cl)cc3)c2c1` [5at, N-[2-(4-Chlorophenyl)Ethyl]-6-Fluoro-4-Quinazolinamine], the remaining activity at 10 µM at CDK5/p35(h) (setting [2]) amounted to 87%; at ErbB2(h) (setting [2]) it was 65%; at FGFR1(V561M)(h) (setting [2]), 95%; at HIPK2(h) (setting [2]), 94%; at Haspin(h) (setting [2]), 78%; on IRAK1(h) (setting [2]), 106%. The remaining activity at 10 µM on PAK6(h) (setting [2]) worked out at 92%; in [1] (setting [2]), 101%; at PKA(h) (setting [2]), 106%; on PKCβII(h) (setting [2]), 104%; on STK32B(h) (setting [2]) it was 97%; at Tie2(R849W)(h) (setting [2]), 90%.
Consider `COc1ccc2ncnc(Nc3cccc(F)c3)c2c1` [5ay, N-(3-Fluorophenyl)-6-Methoxy-4-Quinazolinamine], for which the remaining activity at 10 µM turned out to be 89% on CDK5/p35(h) (setting [3]); 20% on ErbB2(h) (setting [3]); 108% at FGFR1(V561M)(h) (setting [3]); 86% at HIPK2(h) (setting [3]); 36% on Haspin(h) (setting [3]); 87% on IRAK1(h) (setting [3]). The remaining activity at 10 µM on PAK6(h) (setting [3]) amounted to 86%; in assay [1] (setting [3]) it was 99%; at PKA(h) (setting [3]), 97%; on PKCβII(h) (setting [3]), 110%; at STK32B(h) (setting [3]) it was 93%; on Tie2(R849W)(h) (setting [3]) it was 110%.
`Fc1ccc(CCNc2ncnc3ccc(F)cc23)cc1` [5as, 6-Fluoro-N-[2-(4-Fluorophenyl)Ethyl]-4-Quinazolinamine]: the remaining activity at 10 µM on CDK5/p35(h) (setting [4]) turned out to be 87%; on ErbB2(h) (setting [4]), 79%; on FGFR1(V561M)(h) (setting [4]), 100%; at HIPK2(h) (setting [4]) it was 96%; at Haspin(h) (setting [4]), 72%; at IRAK1(h) (setting [4]) it was 87%. Moreover, the remaining activity at 10 µM at PAK6(h) (setting [4]) stood at 84%; in [1] (setting [4]) it was 98%; at PKA(h) (setting [4]) it was 101%; on PKCβII(h) (setting [4]) it was 100%; on STK32B(h) (setting [4]), 92%; on Tie2(R849W)(h) (setting [4]), 98%.
For `Fc1ccc(CNc2ncnc3ccc(F)cc23)cc1` [5aa, 6-Fluoro-N-(4-fluorobenzyl)-4-Quinazolinamine], the remaining activity at 10 µM amounted to 87% on CDK5/p35(h) (setting [5]); 74% at ErbB2(h) (setting [5]); 123% at FGFR1(V561M)(h) (setting [5]); 109% on HIPK2(h) (setting [5]); 71% on Haspin(h) (setting [5]); 114% at IRAK1(h) (setting [5]). Besides, the remaining activity at 10 µM on PAK6(h) (setting [5]) amounted to 92%; in assay [1] (setting [5]), 102%; on PKA(h) (setting [5]), 103%; on PKCβII(h) (setting [5]) it was 107%; on STK32B(h) (setting [5]), 95%; at Tie2(R849W)(h) (setting [5]), 91%.
